One assay deals with CAL-148. The experiment in a line: normalised viability (% of control), CellTiter-Blue; higher = more viable cells (about 100 = DMSO control). To be noted: incubation time: 72 h. On the procedure:
(§1)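 DSRT, CellTiter-Blue viability, 72 h incubation. Signal is normalised to DMSO and benzethonium chloride controls. Value is the normalised response at dose 7.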

A further assay relates to CAL-51. The assay is described as above. The following applies: incubation time: 72 h. The protocol: as §1
The test system of another assay is CAL-85-1. The assay is described as above. The following applies: incubation time: 72 h. On the procedure: as §1
Assay [1] deals with DU-4475. The assay is described as above. To be noted: incubation time: 72 h. On the procedure:
as §1

Assay [2] has as its system HDQ-P1. The description is as above. To be noted: incubation time: 72 h. On the procedure: as §1
Assay [3] relates to MDA-MB-453. Described as above. To be noted: incubation time: 72 h. The protocol:
as §1

A further assay relates to CAL-120. The experiment in a line: normalised response (% of control), CellTiter-Glo; higher = more viable cells (100 = DMSO, 0 = benzethonium chloride kill control). To be noted: incubation time: 72 h. The method, boiled down:
(§2)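 The table gives the normalised signal for a single concentration in each entry. Breast cancer cell lines were seeded (20 µl suspension) into 384-well plates holding compound at 5 concentrations in 10-fold steps over a compound-specific 10,000-fold range and incubated 72 h, then read for CellTox Green fluorescence (485/520 nm) and CellTiter-Glo luminescence. Normalisation on each plate used 0.1 % DMSO (100) and a positive kill control (0).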

The subject of assay [4] is DU-4475. The description is as above. To be noted: incubation time: 72 h. The method, boiled down: as §2
The test system of a further assay is HCC1937. The assay is described as above. The following applies: incubation time: 72 h. The method in brief: as §2
In assay [5] the test system is HDQ-P1. The experiment in a line: drug sensitivity score (DSS), CellTiter-Blue viability (DSS (AUC-based score)); higher = stronger viability inhibition; extreme values may be limits of the assay. The following applies: incubation time: 72 h. On the procedure:
(§3)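 DSRT with the CellTiter-Blue (resazurin reduction) viability readout, fluorescence 560/590 nm, 72 h incubation. Plates were normalised to DMSO and benzethonium chloride controls. DSS is computed from the area under the fitted dose-response curve (5 or 9 concentrations).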
Background: Resazurin is reduced to fluorescent resorufin, in cell work by metabolically active cells.

The next assay has as its system Hs578T. The assay is described as above. To be noted: incubation time: 72 h. The protocol:
as §3

For assay [6], the system named is MDA-MB-436. The description is as above. The following applies: incubation time: 72 h. The protocol: as §3
Another assay has as its system SK-BR-3. Described as above. To be noted: incubation time: 72 h. The protocol:
as §3

The test system of assay [7] is MDA-MB-453. The following applies: 72 h. The method, boiled down: (§4)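 Compound dissolved in 5 µl medium was placed in 384-well plates before 20 µl of breast cancer cell suspension was added, and the plates were incubated for 72 h. Cells then received 2.5 µl CellTiter-Blue for 2 h at 37 °C, and fluorescence was read at 560/590 nm. EC50 values come from percent-inhibition dose-response fits that were censored at the highest concentration, with plates normalised to vehicle and a positive kill control and rows with a zero drug sensitivity score excluded.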

Assay [8] deals with MDA-MB-436. To be noted: 72 h. The method, boiled down: as §4
The subject of another assay is MDA-MB-468. The following applies: 72 h. The method in brief:
as §4

SMILES strings stand for the structures. “And” between values parts separate entries of the source, which are not always exact repeats. Equal values may be shown once.

Regarding `N#Cc1ccc(COC[C@H]2O[C@@H](n3c(NCc4ccc(Cl)c(Cl)c4)nc4c(N)ncnc43)[C@H](O)[C@@H]2O)cc1` (1000 nM), the normalised viability stood at 101% in the assay on CAL-148; 105% in the assay with CAL-51; 88.9% in the assay with CAL-85-1; 99.8% in the assay on DU-4475 [1]; 81.2% with HDQ-P1 [2]; 93.2% in the assay on MDA-MB-453 [3]. The normalised response with CAL-120 turned out to be 101%; in the assay on DU-4475 [4] it was 86%; with HCC1937, 86.9%.
Regarding `COc1cc2ncnc(Nc3ccc(F)c(Cl)c3)c2cc1OCCCN1CCOCC1` [Gefitinib] (1000 nM), the normalised viability is 79.6% and 83.3% in the assay on CAL-148; 107% and 98.3% in the assay on CAL-51; 54.4% and 47.4% in the assay on CAL-85-1; 101% and 86.2% in the assay with DU-4475 [1]; 76.2% and 90.4% in the assay with HDQ-P1 [2]; 82.9% and 76.9% with MDA-MB-453 [3]. The results for the normalised response with CAL-120, in the assay on DU-4475 [4] and in the assay with HCC1937 were 103%, 99.7% and 87.9%, respectively.
For the molecule `COCC[n+]1c2c(n(Cc3cnccn3)c1C)C(=O)c1ccccc1C2=O` [YM155] (1000 nM), the normalised viability was found to be 2.29% in the assay with CAL-148; 1.61% with CAL-51; 2.27% in the assay with CAL-85-1; 1.98% with DU-4475 [1]; 0.25% in the assay on HDQ-P1 [2]; 7.19% with MDA-MB-453 [3]. Further, the values for the normalised response with CAL-120, with DU-4475 [4] and with HCC1937 were 3.05%, 1.45% and 0.41%, respectively.
As to `O=C(Nc1ccncc1)C(=O)c1cn(Cc2ccc(Cl)cc2)c2ccccc12` [Indibulin] (1000 nM), the normalised viability in the assay with CAL-148 turned out to be 118%; in the assay on CAL-51, 54.2%; with CAL-85-1, 53.8%; with DU-4475 [1], 81.8%; with HDQ-P1 [2], 61.3%; in the assay on MDA-MB-453 [3], 38.5%. Further, the normalised response stood at 66.9% in the assay with CAL-120, 91.8% with DU-4475 [4] and 73.9% in the assay on HCC1937.
With `O=C(Nc1cccnc1)N1CCC(Cc2cccc(Oc3ccc(C(F)(F)F)cn3)c2)CC1` [PF-3845] (1000 nM), the normalised viability in the assay on CAL-148 is 101%; with CAL-51 it was 101%; in the assay on CAL-85-1, 83%; in the assay on DU-4475 [1], 81.3%; in the assay on HDQ-P1 [2], 144%; with MDA-MB-453 [3], 86%. The normalised response with CAL-120 was found to be 99%; in the assay on DU-4475 [4], 98.3%; in the assay on HCC1937, 99%.
For the molecule `Oc1ccc2c(c1)CC[C@H](c1ccccc1)[C@@H]2c1ccc(OCCN2CCCC2)cc1` [Lasofoxifene], the drug sensitivity score in the assay on HDQ-P1 [5], in the assay with Hs578T, in the assay on MDA-MB-436 [6] and with SK-BR-3 was 0 throughout.
Regarding `COc1cc(OC2CCN(C)CC2)ccc1Nc1ncc2c(n1)n(C1CCCC1)c(=O)n2C` [AZ 3146] (1000 nM), the normalised viability in the assay on CAL-148 came out at 108%; with CAL-51, 75.2%; with CAL-85-1 it was 108%; in the assay with DU-4475 [1], 99%; in the assay on HDQ-P1 [2], 89.4%; in the assay with MDA-MB-453 [3], 90.6%. Besides, the normalised response in the assay with CAL-120 came out at 98%; with DU-4475 [4], 94.6%; in the assay on HCC1937, 97.2%.
As for `CN(C)CCOc1ccc(/C(=C(/CCCl)c2ccccc2)c2ccccc2)cc1` [Toremifene], the “EC50, CellTiter-Blue viability” value with MDA-MB-453 [7] was 7.24 µM; in the assay with MDA-MB-436 [8] it was 2.2 µM; with MDA-MB-468, 5.6 µM. The drug sensitivity score with HDQ-P1 [5] was 0; in the assay on Hs578T it was 0; in the assay with MDA-MB-436 [6], 1.83; in the assay with SK-BR-3, 0.
`O=P1(N(CCCl)CCCl)NCCCO1` (stereo unspecified) [Cyclophosphamide] (4000 nM): the normalised viability was found to be 121% in the assay with CAL-148; 99% in the assay on CAL-51; 101% with CAL-85-1; 97% in the assay with DU-4475 [1]; 99.2% with HDQ-P1 [2]; 105% in the assay on MDA-MB-453 [3]. Moreover, the normalised response in the assay with CAL-120 was determined as 94.4%; with DU-4475 [4] it was 104%; in the assay with HCC1937, 99%.
`c1ccc2c(CCNc3ccc(Nc4ccncc4)cc3)c[nH]c2c1` [Serdemetan] (1000 nM): the normalised viability with CAL-148 was 77.3%; in the assay with CAL-51, 102%; in the assay on CAL-85-1, 75.9%; in the assay on DU-4475 [1], 104%; in the assay with HDQ-P1 [2], 96.4%; in the assay on MDA-MB-453 [3], 85.2%. Moreover, the normalised response with CAL-120 was 93.7%; in the assay with DU-4475 [4], 90.3%; in the assay on HCC1937, 88.5%.
Turning to `COc1cc2/c(=N/c3ccc(Br)cc3F)nc[nH]c2cc1OCC1CCN(C)CC1` [Vandetanib] (1000 nM), the normalised viability is 89.2% in the assay on CAL-148; 82.4% with CAL-51; 71% in the assay with CAL-85-1; 105% in the assay with DU-4475 [1]; 48.7% with HDQ-P1 [2]; 87.9% with MDA-MB-453 [3].
Take `CNC(=O)c1cc(Oc2ccc(NC(=O)Nc3ccc(Cl)c(C(F)(F)F)c3)c(F)c2)ccn1` [Regorafenib] (1000 nM): the normalised viability in the assay on CAL-148 was found to be 107%; with CAL-51, 90.5%; with CAL-85-1, 78.6%; in the assay on DU-4475 [1] it was 97.6%; with HDQ-P1 [2] it was 98.3%; with MDA-MB-453 [3], 87%. The normalised response in the assay with CAL-120 worked out at 94.9%; in the assay with DU-4475 [4], 97.3%; with HCC1937, 103%.
Consider `CN(C)c1nc(N(C)C)nc(N(C)C)n1` [Altretamine] (1000 nM), for which the normalised viability in the assay with CAL-148 worked out at 105%; in the assay with CAL-51, 103%; in the assay with CAL-85-1, 96.9%; with DU-4475 [1], 113%; in the assay on HDQ-P1 [2], 101%; in the assay with MDA-MB-453 [3], 91.6%. The normalised response worked out at 99.5% with CAL-120, 98.9% in the assay on DU-4475 [4] and 99.4% in the assay on HCC1937.
As to `C=C1C[C@@H]2[C@H](CC[C@]3(C)C(=O)CC[C@@H]23)[C@@]2(C)C=CC(=O)C=C12` [Exemestane] (1000 nM), the normalised viability with CAL-148 stood at 120%; with CAL-51, 96.5%; in the assay on CAL-85-1, 91.7%; with DU-4475 [1] it was 85.8%; in the assay with HDQ-P1 [2], 102%; with MDA-MB-453 [3] it was 90.2%. For the same molecule, the normalised response with CAL-120 was determined as 102%; in the assay on DU-4475 [4], 105%; in the assay on HCC1937, 103%.

Values taken from the supplement of paper PMC4862054.
